In the NIST ThermoML archive (doi:10.1016/j.jct.2017.12.023):

Assay: xn = mol fraction of the nth substance listed
Conditions: 100 kPa, Liquid; for viscosity: Concentric cylinders viscometry; for mass density: Vibrating tube method

CCOS(=O)(=O)[O-].CCn1cc[n+](C)c1 [1-ethyl-3-methylimidazolium ethyl sulfate] + CCCCCCO
Conditions	mass density [kg/m3]	viscosity [mPa·s]
288.15 K, x1 = 0.1016	883.62	9.353
288.15 K, x1 = 0.2016	938.59	13.3
288.15 K, x1 = 0.3005	988.2	18.78
288.15 K, x1 = 0.3989	1033.38	26.42
288.15 K, x1 = 0.4975	1075.01	36.71
288.15 K, x1 = 0.5956	1113.22	50.2
288.15 K, x1 = 0.6647	1138.48	61.57
288.15 K, x1 = 0.7947	1182.52	90.12
288.15 K, x1 = 0.897	1214.13	117.32
288.15 K, x1 = 1	1243.07	155.55
293.15 K, x1 = 0.1016	880.04	7.885
293.15 K, x1 = 0.2016	935.01	11.15
293.15 K, x1 = 0.3005	984.62	15.65
293.15 K, x1 = 0.3989	1029.83	21.79
293.15 K, x1 = 0.4975	1071.48	29.93
293.15 K, x1 = 0.5956	1109.72	40.24
293.15 K, x1 = 0.6647	1135	48.86
293.15 K, x1 = 0.7947	1179.07	69.76
293.15 K, x1 = 0.897	1210.7	90.21
293.15 K, x1 = 1	1239.66	117.88
298.15 K, x1 = 0.1016	876.47	6.825
298.15 K, x1 = 0.2016	931.44	9.64
298.15 K, x1 = 0.3005	981.06	13.44
298.15 K, x1 = 0.3989	1026.28	18.54
298.15 K, x1 = 0.4975	1067.96	25.04
298.15 K, x1 = 0.5956	1106.23	33.31
298.15 K, x1 = 0.6647	1131.53	40.06
298.15 K, x1 = 0.7947	1175.63	55.99
298.15 K, x1 = 0.897	1207.28	71.04
298.15 K, x1 = 1	1236.27	91.26
303.15 K, x1 = 0.1016	872.88	5.918
303.15 K, x1 = 0.2016	927.87	8.313
303.15 K, x1 = 0.3005	977.51	11.56
303.15 K, x1 = 0.3989	1022.76	15.8
303.15 K, x1 = 0.4975	1064.47	21.17
303.15 K, x1 = 0.5956	1102.76	27.85
303.15 K, x1 = 0.6647	1128.08	33.14
303.15 K, x1 = 0.7947	1172.21	45.6
303.15 K, x1 = 0.897	1203.87	57.05
303.15 K, x1 = 1	1232.87	72.1
308.15 K, x1 = 0.1016	869.3	5.153
308.15 K, x1 = 0.2016	924.31	7.242
308.15 K, x1 = 0.3005	973.98	10.01
308.15 K, x1 = 0.3989	1019.25	13.6
308.15 K, x1 = 0.4975	1060.99	18.02
308.15 K, x1 = 0.5956	1099.3	23.46
308.15 K, x1 = 0.6647	1124.65	27.77
308.15 K, x1 = 0.7947	1168.81	37.67
308.15 K, x1 = 0.897	1200.48	46.51
308.15 K, x1 = 1	1229.49	57.98
313.15 K, x1 = 0.1016	865.72	4.475
313.15 K, x1 = 0.2016	920.76	6.296
313.15 K, x1 = 0.3005	970.44	8.67
313.15 K, x1 = 0.3989	1015.75	11.7
313.15 K, x1 = 0.4975	1057.52	15.4
313.15 K, x1 = 0.5956	1095.87	19.84
313.15 K, x1 = 0.6647	1121.24	23.34
313.15 K, x1 = 0.7947	1165.42	31.23
313.15 K, x1 = 0.897	1197.11	38.33
313.15 K, x1 = 1	1226.13	47.26
318.15 K, x1 = 0.1016	862.11	3.975
318.15 K, x1 = 0.2016	917.2	5.593
318.15 K, x1 = 0.3005	966.93	7.683
318.15 K, x1 = 0.3989	1012.26	10.3
318.15 K, x1 = 0.4975	1054.07	13.44
318.15 K, x1 = 0.5956	1092.45	17.17
318.15 K, x1 = 0.6647	1117.84	20.06
318.15 K, x1 = 0.7947	1162.05	26.51
318.15 K, x1 = 0.897	1193.76	32.18
318.15 K, x1 = 1	1222.79	39.25
323.15 K, x1 = 0.1016	858.5	3.566
323.15 K, x1 = 0.2016	913.65	4.959
323.15 K, x1 = 0.3005	963.42	6.841
323.15 K, x1 = 0.3989	1008.79	9.127
323.15 K, x1 = 0.4975	1050.64	11.85
323.15 K, x1 = 0.5956	1089.05	14.98
323.15 K, x1 = 0.6647	1114.46	17.41
323.15 K, x1 = 0.7947	1158.7	22.64
323.15 K, x1 = 0.897	1190.42	27.41
323.15 K, x1 = 1	1219.46	32.94
